{"source": "ChEMBL document CHEMBL1201861", "about": "“Genomics of Drug Sensitity in Cancer screening data, Wellcome Trust Sanger Institute”", "test_in_all_cases": "cells", "key": {"D283 Med": {"test_system": "D283 Med", "type": "functional, cell-based, Homo sapiens", "conditions": "Homo sapiens, D283 Med", "description": "SANGER: Inhibition of human D-283MED cell growth in a cell viability assay."}, "EFO-21": {"test_system": "EFO-21", "type": "functional, cell-based, Homo sapiens", "conditions": "Homo sapiens, EFO-21", "description": "SANGER: Inhibition of human EFO-21 cell growth in a cell viability assay."}, "ES3": {"test_system": "ES3", "type": "functional, cell-based, Homo sapiens", "conditions": "Homo sapiens, ES3", "description": "SANGER: Inhibition of human ES3 cell growth in a cell viability assay."}, "ES4": {"test_system": "ES4", "type": "functional, cell-based, Homo sapiens", "conditions": "Homo sapiens, ES4", "description": "SANGER: Inhibition of human ES4 cell growth in a cell viability assay."}, "EW-1": {"test_system": "EW-1", "type": "functional, cell-based, Homo sapiens", "conditions": "Homo sapiens, EW-1", "description": "SANGER: Inhibition of human EW-1 cell growth in a cell viability assay."}, "FTC-133": {"test_system": "FTC-133", "type": "functional, cell-based, Homo sapiens", "conditions": "Homo sapiens, FTC-133"}, "G-401": {"test_system": "G-401", "type": "functional, cell-based, Homo sapiens", "conditions": "Homo sapiens, G-401", "description": "SANGER: Inhibition of human G-401 cell growth in a cell viability assay."}, "G-402": {"test_system": "G-402", "type": "functional, cell-based, Homo sapiens", "conditions": "Homo sapiens, G-402", "description": "SANGER: Inhibition of human G-402 cell growth in a cell viability assay."}, "HAL-01": {"test_system": "HAL-01", "type": "functional, cell-based", "conditions": "Homo sapiens", "description": "SANGER: Inhibition of human HAL-01 cell growth in a cell viability assay."}, "HH": {"test_system": "HH", "type": "functional, cell-based", "conditions": "Homo sapiens", "description": "SANGER: Inhibition of human HH cell growth in a cell viability assay."}, "HLE": {"test_system": "HLE", "type": "functional, cell-based, Homo sapiens", "conditions": "Homo sapiens, HLE", "description": "SANGER: Inhibition of human HLE cell growth in a cell viability assay."}, "HT-3": {"test_system": "HT-3", "type": "functional, cell-based, Homo sapiens", "conditions": "Homo sapiens, HT-3", "description": "SANGER: Inhibition of human HT-3 cell growth in a cell viability assay."}, "Hs-578T": {"test_system": "Hs-578T", "type": "functional, cell-based, Homo sapiens", "conditions": "Homo sapiens, Hs-578T", "description": "SANGER: Inhibition of human Hs-578-T cell growth in a cell viability assay."}, "IGR-1": {"test_system": "IGR-1", "type": "functional, cell-based, Homo sapiens", "conditions": "Homo sapiens, IGR-1", "description": "SANGER: Inhibition of human IGR-1 cell growth in a cell viability assay."}, "K562": {"test_system": "K562", "type": "functional, cell-based", "conditions": "Homo sapiens", "description": "SANGER: Inhibition of human K-562 cell growth in a cell viability assay."}, "LC-2-ad": {"test_system": "LC-2-ad", "type": "functional, cell-based, Homo sapiens", "conditions": "Homo sapiens, LC-2-ad", "description": "SANGER: Inhibition of human LC-2-ad cell growth in a cell viability assay."}, "ME-180": {"test_system": "ME-180", "type": "functional, cell-based", "conditions": "Homo sapiens", "description": "SANGER: Inhibition of human ME-180 cell growth in a cell viability assay."}, "MFE-280": {"test_system": "MFE-280", "type": "functional, cell-based, Homo sapiens", "conditions": "Homo sapiens, MFE-280", "description": "SANGER: Inhibition of human MFE-280 cell growth in a cell viability assay."}, "MFH-ino": {"test_system": "MFH-ino", "type": "functional, cell-based", "conditions": "Homo sapiens", "description": "SANGER: Inhibition of human MFH-ino cell growth in a cell viability assay."}, "MG-63": {"test_system": "MG-63", "type": "functional, cell-based, Homo sapiens", "conditions": "Homo sapiens, MG-63", "description": "SANGER: Inhibition of human MG-63 cell growth in a cell viability assay."}, "MKN-45": {"test_system": "MKN-45", "type": "functional, cell-based, Homo sapiens", "conditions": "Homo sapiens, MKN-45", "description": "SANGER: Inhibition of human MKN45 cell growth in a cell viability assay."}, "NB10": {"test_system": "NB10", "type": "functional, cell-based, Homo sapiens", "conditions": "Homo sapiens, NB10", "description": "SANGER: Inhibition of human NB10 cell growth in a cell viability assay."}, "NB5": {"test_system": "NB5", "type": "functional, cell-based, Homo sapiens", "conditions": "Homo sapiens, NB5", "description": "SANGER: Inhibition of human NB5 cell growth in a cell viability assay."}, "NCI-H2405": {"test_system": "NCI-H2405", "type": "functional, cell-based, Homo sapiens", "conditions": "Homo sapiens, NCI-H2405", "description": "SANGER: Inhibition of human NCI-H2405 cell growth in a cell viability assay."}, "NCI-H441": {"test_system": "NCI-H441", "type": "functional, cell-based", "conditions": "Homo sapiens", "description": "SANGER: Inhibition of human NCI-H441 cell growth in a cell viability assay."}, "NCI-H82": {"test_system": "NCI-H82", "type": "functional, cell-based", "conditions": "Homo sapiens", "description": "SANGER: Inhibition of human NCI-H82 cell growth in a cell viability assay."}, "NH-12": {"test_system": "NH-12", "type": "functional, cell-based, Homo sapiens", "conditions": "Homo sapiens, NH-12", "description": "SANGER: Inhibition of human NH-12 cell growth in a cell viability assay."}, "PANC-03-27": {"test_system": "PANC-03-27", "type": "functional, cell-based, Homo sapiens", "conditions": "Homo sapiens, PANC-03-27", "description": "SANGER: Inhibition of human PANC-03-27 cell growth in a cell viability assay."}, "QIMR-WIL": {"test_system": "QIMR-WIL", "type": "functional, cell-based", "conditions": "Homo sapiens", "description": "SANGER: Inhibition of human QIMR-WIL cell growth in a cell viability assay."}, "SBC-5": {"test_system": "SBC-5", "type": "functional, cell-based, Homo sapiens", "conditions": "Homo sapiens, SBC-5", "description": "SANGER: Inhibition of human SBC-5 cell growth in a cell viability assay."}, "SF-126": {"test_system": "SF-126", "type": "functional, cell-based, Homo sapiens", "conditions": "Homo sapiens, SF-126", "description": "SANGER: Inhibition of human SF126 cell growth in a cell viability assay."}, "SF-268": {"test_system": "SF-268", "type": "functional, cell-based, Homo sapiens", "conditions": "Homo sapiens, SF-268", "description": "SANGER: Inhibition of human SF268 cell growth in a cell viability assay."}, "SKG-IIIa": {"test_system": "SKG-IIIa", "type": "functional, cell-based, Homo sapiens", "conditions": "Homo sapiens, SKG-IIIa", "description": "SANGER: Inhibition of human SKG-IIIa cell growth in a cell viability assay."}, "SN12C": {"test_system": "SN12C", "type": "functional, cell-based, Homo sapiens", "conditions": "Homo sapiens, SN12C", "description": "SANGER: Inhibition of human SN12C cell growth in a cell viability assay."}, "SW-620": {"test_system": "SW-620", "type": "functional, cell-based, Homo sapiens", "conditions": "Homo sapiens, SW-620", "description": "SANGER: Inhibition of human SW620 cell growth in a cell viability assay."}, "SW 954": {"test_system": "SW 954", "type": "functional, cell-based, Homo sapiens", "conditions": "Homo sapiens, SW 954", "description": "SANGER: Inhibition of human SW954 cell growth in a cell viability assay."}, "SW 962": {"test_system": "SW 962", "type": "functional, cell-based, Homo sapiens", "conditions": "Homo sapiens, SW 962", "description": "SANGER: Inhibition of human SW962 cell growth in a cell viability assay."}, "CWR22R": {"test_system": "CWR22R", "type": "functional, cell-based, Homo sapiens", "conditions": "Homo sapiens, 22Rv1", "description": "SANGER: Inhibition of human 22RV1 cell growth in a cell viability assay."}, "786-0": {"test_system": "786-0", "type": "functional, cell-based, Homo sapiens", "conditions": "Homo sapiens", "description": "SANGER: Inhibition of human 786-0 cell growth in a cell viability assay."}, "A388": {"test_system": "A388", "type": "functional, cell-based, Homo sapiens", "conditions": "Homo sapiens, A388", "description": "SANGER: Inhibition of human A388 cell growth in a cell viability assay."}, "A4-Fuk": {"test_system": "A4-Fuk", "type": "functional, cell-based", "conditions": "Homo sapiens", "description": "SANGER: Inhibition of human A4-Fuk cell growth in a cell viability assay."}, "A498": {"test_system": "A498", "type": "functional, cell-based, Homo sapiens", "conditions": "Homo sapiens, A498", "description": "SANGER: Inhibition of human A498 cell growth in a cell viability assay."}, "BFTC-905": {"test_system": "BFTC-905", "type": "functional, cell-based, Homo sapiens", "conditions": "Homo sapiens, BFTC-905", "description": "SANGER: Inhibition of human BFTC-905 cell growth in a cell viability assay."}, "BHT-101": {"test_system": "BHT-101", "type": "functional, cell-based, Homo sapiens", "conditions": "Homo sapiens, BHT-101", "description": "SANGER: Inhibition of human BHT-101 cell growth in a cell viability assay."}, "C2BBe1": {"test_system": "C2BBe1", "type": "functional, cell-based, Homo sapiens", "conditions": "Homo sapiens, C2BBe1", "description": "SANGER: Inhibition of human C2BBe1 cell growth in a cell viability assay."}, "CAL-120": {"test_system": "CAL-120", "type": "functional, cell-based, Homo sapiens", "conditions": "Homo sapiens, CAL-120", "description": "SANGER: Inhibition of human CAL-120 cell growth in a cell viability assay."}, "TE-6": {"test_system": "TE-6", "type": "functional, cell-based, Homo sapiens", "conditions": "Homo sapiens, TE-6", "description": "SANGER: Inhibition of human TE-6 cell growth in a cell viability assay."}, "TGBC1TKB": {"test_system": "TGBC1TKB", "type": "functional, cell-based, Homo sapiens", "conditions": "Homo sapiens, TGBC1TKB", "description": "SANGER: Inhibition of human TGBC1TKB cell growth in a cell viability assay."}, "TYK-nu": {"test_system": "TYK-nu", "type": "functional, cell-based, Homo sapiens", "conditions": "Homo sapiens, TYK-nu", "description": "SANGER: Inhibition of human TYK-nu cell growth in a cell viability assay."}, "VMRC-RCZ": {"test_system": "VMRC-RCZ", "type": "functional, cell-based", "conditions": "Homo sapiens", "description": "SANGER: Inhibition of human VMRC-RCZ cell growth in a cell viability assay."}, "CHP-212": {"test_system": "CHP-212", "type": "functional, cell-based, Homo sapiens", "conditions": "Homo sapiens, CHP-212", "description": "SANGER: Inhibition of human CHP-212 cell growth in a cell viability assay."}}}
{"smiles": "Cn1cncc1[C@@](N)(c1ccc(Cl)cc1)c1ccc2c(c1)c(-c1cccc(Cl)c1)cc(=O)n2C", "note": "[TIPIFARNIB]", "values": [{"measurement": "IC50", "setting": "D283 Med", "value": "> 16", "unit": "µM"}, {"measurement": "IC50", "setting": "EFO-21", "value": 4.26, "unit": "µM"}, {"measurement": "IC50", "setting": "ES3", "value": 11.8, "unit": "µM"}, {"measurement": "IC50", "setting": "ES4", "value": 1280, "unit": "nM"}, {"measurement": "IC50", "setting": "EW-1", "value": 12.3, "unit": "µM"}, {"measurement": "IC50", "setting": "FTC-133", "value": "> 16", "unit": "µM"}, {"measurement": "IC50", "setting": "G-401", "value": 503, "unit": "nM"}, {"measurement": "IC50", "setting": "G-402", "value": 2110, "unit": "nM"}, {"measurement": "IC50", "setting": "HAL-01", "value": 6.74, "unit": "µM"}, {"measurement": "IC50", "setting": "HH", "value": 191, "unit": "nM"}, {"measurement": "IC50", "setting": "HLE", "value": 448, "unit": "nM"}, {"measurement": "IC50", "setting": "HT-3", "value": "> 16", "unit": "µM"}, {"measurement": "IC50", "setting": "Hs-578T", "value": "> 16", "unit": "µM"}, {"measurement": "IC50", "setting": "IGR-1", "value": 1620, "unit": "nM"}, {"measurement": "IC50", "setting": "K562", "value": 4.82, "unit": "µM"}, {"measurement": "IC50", "setting": "LC-2-ad", "value": 1490, "unit": "nM"}, {"measurement": "IC50", "setting": "ME-180", "value": 14.5, "unit": "µM"}, {"measurement": "IC50", "setting": "MFE-280", "value": "> 16", "unit": "µM"}, {"measurement": "IC50", "setting": "MFH-ino", "value": 815, "unit": "nM"}, {"measurement": "IC50", "setting": "MG-63", "value": 1840, "unit": "nM"}, {"measurement": "IC50", "setting": "MKN-45", "value": 2790, "unit": "nM"}, {"measurement": "IC50", "setting": "NB10", "value": 11.7, "unit": "µM"}, {"measurement": "IC50", "setting": "NB5", "value": "> 16", "unit": "µM"}, {"measurement": "IC50", "setting": "NCI-H2405", "value": 9.6, "unit": "µM"}, {"measurement": "IC50", "setting": "NCI-H441", "value": 13.6, "unit": "µM"}, {"measurement": "IC50", "setting": "NCI-H82", "value": 9.1, "unit": "µM"}, {"measurement": "IC50", "setting": "NH-12", "value": 5.59, "unit": "µM"}, {"measurement": "IC50", "setting": "PANC-03-27", "value": 5.73, "unit": "µM"}, {"measurement": "IC50", "setting": "QIMR-WIL", "value": 16.3, "unit": "nM"}, {"measurement": "IC50", "setting": "SBC-5", "value": 2810, "unit": "nM"}, {"measurement": "IC50", "setting": "SF-126", "value": 3.88, "unit": "µM"}, {"measurement": "IC50", "setting": "SF-268", "value": 8.07, "unit": "µM"}, {"measurement": "IC50", "setting": "SKG-IIIa", "value": "> 16", "unit": "µM"}, {"measurement": "IC50", "setting": "SN12C", "value": 13.2, "unit": "µM"}, {"measurement": "IC50", "setting": "SW-620", "value": 482, "unit": "nM"}, {"measurement": "IC50", "setting": "SW 954", "value": 2900, "unit": "nM"}, {"measurement": "IC50", "setting": "SW 962", "value": 2150, "unit": "nM"}, {"measurement": "IC50", "setting": "CWR22R", "value": 3.22, "unit": "µM"}, {"measurement": "IC50", "setting": "786-0", "value": 342, "unit": "nM"}, {"measurement": "IC50", "setting": "A388", "value": 865, "unit": "nM"}, {"measurement": "IC50", "setting": "A4-Fuk", "value": 20.6, "unit": "nM"}, {"measurement": "IC50", "setting": "A498", "value": "> 16", "unit": "µM"}, {"measurement": "IC50", "setting": "BFTC-905", "value": 1880, "unit": "nM"}, {"measurement": "IC50", "setting": "BHT-101", "value": 3.09, "unit": "µM"}, {"measurement": "IC50", "setting": "C2BBe1", "value": "> 16", "unit": "µM"}, {"measurement": "IC50", "setting": "CAL-120", "value": "> 16", "unit": "µM"}, {"measurement": "IC50", "setting": "TE-6", "value": 7.21, "unit": "µM"}, {"measurement": "IC50", "setting": "TGBC1TKB", "value": "> 16", "unit": "µM"}, {"measurement": "IC50", "setting": "TYK-nu", "value": "> 16", "unit": "µM"}, {"measurement": "IC50", "setting": "VMRC-RCZ", "value": 3.18, "unit": "µM"}, {"measurement": "IC50", "setting": "CHP-212", "value": 1380, "unit": "nM"}]}
